Data reported in PMC12596500, “Affinity-selected peptide ligands specifically bind i-motif DNA and modulate c-Myc gene expression” (Nucleic Acids Research, 2025).
Peptide text beside a SMILES is read from it.

How the values were obtained:
c-MycC27 = assay: CD melting of c-MycC27; assay type: binding; conditions: 10 µM DNA; for TM c-MycC27, first (lower) transition / TM c-MycC27, second (higher) transition: 10 mM NaCaco pH 6.6, 10 molar eqv. peptide, mean ± SEM (n=4); for effect on c-MycC27 thermal stability, in words: pH 6.6, 10 molar equivalents peptide
Method: (§1) Circular Dichroism (CD) melting experiments were performed in a Jasco J-1500 spectropolarimeter with 10 µM DNA samples in 10 mM sodium cacodylate buffer at pH 6.6 using a 1 mm path length quartz cuvette. […] The samples were kept at 5°C for 5 min before starting the melt, with a temperature increase of 1°C/min, a 0.5°C data interval, and a 60-s holding time at each target temperature. Four scans were accumulated data pitch of 0.5 nm, a scanning speed of 200 nm/min, 1 s response time, 2 nm bandwidth, and 200 mdeg sensitivity. Furthermore, two CD melting experiment repeats were performed recording C-rich c-Myc at 288 and 320 nm, G-rich c-Myc at 264 and 320 nm, and dsDNA at 253 and 320 nm with the settings as described for full spectrum measurements. Data were zero corrected to 320 nm and baseline drift. The melting temperature (TM) was concluded using the Boltzmann or biphasic fitting curve on the folded fraction data using GraphPad Prism version 10.1.2. Data were processed as mean ± SEM (n = 4) and one-way ANOVA followed by Bonferroni post-hoc test to determine significant changes between peptides and controls.

[1] = tested on: c-Myc promoter (Del-4) Firefly luciferase reporter in HEK293 cells; assay: Dual-luciferase reporter assay, c-Myc promoter; assay type: cell-based, human; conditions: HEK293, 4 h, 1, 5 or 10 µM peptide with Nanocin Pro; Firefly/Renilla normalised to 0.2% DMSO; P < 0.001
Method: Cell studies: HEK293 cells (ATCC CRL-1573™, passages 20–28), MCF-7 cells (ATCC HTB-22™, passages 21–28), and Panc-1 cells (ATCC CRL-1469™, passages 15–22) were cultured in Dulbecco's Modified Eagle's Medium (DMEM) medium supplemented with 10% fetal bovine serum (FBS; Gibco, UK) and maintained under standard cell culture conditions (37°C, 5% CO2). Cells were passaged every 3–4 days at ∼80% confluency. For experiments, the cells were seeded into six-well plates at a density of 1 × 10⁵ cells/well in DMEM containing 10% FBS. […] Cell proliferation was assessed at 4 and 24 h post-treatment using the CellTiter 96® Aqueous One Solution Cell Proliferation Assay (Promega, USA). For this, 20 µl of reagent was added per well, and absorbance at 490 nm was measured after 4 and 24 h using a SpectraMax iD3 plate reader (Molecular Devices, UK). Blank values (media without cells) were subtracted, and readings were normalized to DMSO-treated controls. […] Statistical significance was determined using one-way ANOVA followed by Holm–Šídák post-hoc analysis performed in GraphPad Prism version 10.1.2. […]

dsDNA (DS) = assay: CD melting of double-stranded DNA; assay type: binding; conditions: for TM DS / ΔTM DS: 10 µM DNA, SEM; for TM DS / effect on dsDNA melting compared to the solvent controls, in words: 10 mM NaCaco pH 6.6, 10 molar eqv. peptide; for TM DS: mean ± SEM (n=4); for ΔTM DS: 10 mM sodium cacodylate pH 6.6, 10 molar equivalents peptide vs DMSO, mean ± SEM (n = 4); for effect on dsDNA melting compared to the solvent controls, in words: 10 µM DS
Method: as §1

[2] = tested on: human insulin promoter (ILPR) firefly luciferase reporter in HEK293 cells; assay: Dual-luciferase reporter assay, insulin promoter (ILPR); assay type: cell-based; conditions: HEK293, 4 h, 10 µM peptide with Nanocin Pro
[3] = 10 mM sodium cacodylate pH 6.6, 10 molar equivalents peptide vs DMSO, mean ± SEM (n = 4), SEM

Row | SMILES | TM c-MycC27, first (lower) transition (c-MycC27; SEM) [°C] | TM c-MycC27, second (higher) transition (c-MycC27; SEM) [°C] | ΔTM c-MycC27, first value (transition at lower temperature) (c-MycC27; [3]) | ΔTM c-MycC27, second value (transition at higher temperature) (c-MycC27; [3]) | effect on c-MycC27 thermal stability, in words (c-MycC27) | luciferase activity (c-Myc promoter activity) vs vehicle-only control [1] | TM DS (dsDNA (DS)) [°C] | ΔTM DS (dsDNA (DS)) [°C] | effect on dsDNA melting compared to the solvent controls, in words (dsDNA (DS)) | insulin promoter (ILPR) reporter response [2]
1 | CC(=O)N1CCC[C@H]1C(=O)N[C@H](C(=O)N[C@@H](CC(N)=O)C(=O)N[C@H](C(=O)N[C@@H](CO)C(=O)NCC(=O)N[C@@H](CCCNC(=N)N)C(=O)N[C@@H](CC(N)=O)C(=O)N[C@@H](Cc1ccc(O)cc1)C(=O)N[C@@H](CC(C)C)C(=O)N[C@@H](Cc1ccccc1)C(=O)N[C@@H](CS)C(N)=O)C(C)C)[C@@H](C)O [Pep-PTN] (Ac-PTNVSGRNYLFC-NH2) | 27 ± 0.7 | 79 ± 0.5 | 0 ± 0.5; 0 ± 0.5 °C | 0 ± 0.5; 0 ± 0.5 °C | neither stabilized nor destabilized | concentration-dependent decreases in luciferase activity | 52 ± 1.0 | 0 ± 0.6 | no effect on dsDNA melting | no significant change in response
2 | CC(=O)N[C@H](C(=O)N[C@@H](CO)C(=O)N[C@@H](CCC(=O)O)C(=O)N[C@@H](C)C(=O)N[C@@H](Cc1c[nH]c2ccccc12)C(=O)N[C@@H](CCCCN)C(=O)N[C@@H](CCC(=O)O)C(=O)N[C@H](C(=O)N[C@@H](CCCCN)C(=O)NCC(=O)N[C@@H](Cc1ccccc1)C(=O)N[C@@H](Cc1ccccc1)C(N)=O)C(C)C)C(C)C [Pep-VSE] (Ac-VSEAWKEVKGFF-NH2) | 26 ± 1.0 | 80 ± 0.6 | 0 ± 0.6 °C | – | neither stabilized nor destabilized | concentration-dependent decreases in luciferase activity | 51 ± 0.8 | 0 ± 0.8 | no effect on dsDNA melting | no significant change in response
